Measured values published in patent US20170349638A1, “COMPANION DIAGNOSTIC TOOL FOR PEPTIDOMIMETIC MACROCYCLES” (AILERON Therapeutics, Inc., priority 2016, published 2017).
Where a SMILES comes first, the peptide text is derived from it. Bridges are numbered along the chain shown (N, C = ends). [ ]: non-standard residue; d: D form. R8 = C=CCCCCCC[C@@](C)(N)C(=O)O; S5 = C=CCCC[C@](C)(N)C(=O)O

Assays:
GST-hDM2 = GST-hDM2 (Homo sapiens, UniProt Q00987); experiment: Competition ELISA IC50 (nM) | GST-hDM2
Chain of GST-hDM2 (Q00987 whole entry, looked up): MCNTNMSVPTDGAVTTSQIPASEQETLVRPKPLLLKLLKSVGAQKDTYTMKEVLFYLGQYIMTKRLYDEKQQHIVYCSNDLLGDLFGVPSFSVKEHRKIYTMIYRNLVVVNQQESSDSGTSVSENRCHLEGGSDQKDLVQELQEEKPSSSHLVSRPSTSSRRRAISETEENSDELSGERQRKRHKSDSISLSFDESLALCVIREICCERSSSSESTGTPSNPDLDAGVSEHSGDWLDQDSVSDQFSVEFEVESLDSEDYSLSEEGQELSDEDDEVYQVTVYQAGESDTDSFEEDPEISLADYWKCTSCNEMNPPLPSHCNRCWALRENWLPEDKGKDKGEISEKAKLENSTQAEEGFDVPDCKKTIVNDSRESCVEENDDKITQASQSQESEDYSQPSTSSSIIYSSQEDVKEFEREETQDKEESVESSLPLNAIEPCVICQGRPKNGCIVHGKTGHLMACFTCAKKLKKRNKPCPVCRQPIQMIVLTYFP
Description: Table printed on a drawing sheet, FIGURE 5A
Head of the field: Competition ELISA IC50 (nM) | GST-hDM2
The patent's description of the figure: FIGS. 5A-F describe the results of a cell viability assay, a competition ELISA assay, GRIP assay, Kd data, p21 activation assay, fluorescence polarization competition binding and circular helicity data for exemplary peptidomimetic macrocycles of the invention.
First copying reader's note: First part of a table that continues on FIGS. 5B-F; the print is coarse, several cells hold replicate values separated by; or , and some values sit slightly off their row line.
Where the first naming reader finds the target: head: Competition ELISA IC50 (nM) | GST-hDM2

HDM2 = HDM2 (Homo sapiens, UniProt Q00987); experiment: FP Competition Blinding Assay | HDM2 IC50 (nM)
Chain of HDM2 (Q00987 whole entry, looked up): as above

HDMx = HDMx (Homo sapiens, UniProt O15151); experiment: FP Competition Blinding Assay | HDMx IC50 (nM)
Chain of HDMx (O15151 whole entry, looked up): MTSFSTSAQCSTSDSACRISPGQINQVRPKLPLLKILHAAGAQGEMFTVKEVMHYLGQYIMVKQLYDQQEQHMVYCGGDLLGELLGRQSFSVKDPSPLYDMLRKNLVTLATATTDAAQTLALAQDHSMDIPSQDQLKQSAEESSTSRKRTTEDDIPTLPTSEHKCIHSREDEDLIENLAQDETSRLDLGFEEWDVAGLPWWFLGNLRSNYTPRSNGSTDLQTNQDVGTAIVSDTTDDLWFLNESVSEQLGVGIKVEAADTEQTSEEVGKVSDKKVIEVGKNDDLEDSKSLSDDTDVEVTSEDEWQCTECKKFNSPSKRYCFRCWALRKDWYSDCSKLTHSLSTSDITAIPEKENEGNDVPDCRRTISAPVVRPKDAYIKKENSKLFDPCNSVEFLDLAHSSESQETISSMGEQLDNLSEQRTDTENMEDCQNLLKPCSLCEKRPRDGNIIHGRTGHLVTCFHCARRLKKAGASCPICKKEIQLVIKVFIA

| Compound | IC50 (GST-hDM2) [nM] | IC50 (HDM2) [nM] | IC50 (HDMx) [nM] |
| --- | --- | --- | --- |
| CC(=O)N[C@@H](CC(C)C)C(=O)N[C@@H](CO)C(=O)N[C@@H](CCC(N)=O)C(=O)N[C@@H](CCC(N)=O)C(=O)N[C@H](C(=O)N[C@@H](Cc1ccccc1)C(=O)N[C@]1(C)CCCCCCC=CCCC[C@@](C)(C(=O)N[C@@H](CCC(N)=O)C(=O)N[C@@H](CC(N)=O)C(N)=O)NC(=O)[C@H](CC(C)C)NC(=O)[C@H](CC(C)C)NC(=O)[C@H](CCCNC(=N)N)NC(=O)[C@H](Cc2c[nH]c3ccccc23)NC(=O)[C@H](CC(C)C)NC(=O)[C@H](CC(N)=O)NC1=O)[C@@H](C)O [SP-3, Ac-LSQQTF$r8NLWRLL$QN-NH2] (Ac-LSQQTF[R8]NLWRLL[S5]QN-NH2; staple 7-14 (inferred)) | 13.4 | – | – |
| CC(=O)N[C@@H](CC(C)C)C(=O)N[C@H](C(=O)N[C@@H](Cc1ccccc1)C(=O)N[C@]1(C)CCCCCC/C=C/CCC[C@@](C)(C(=O)N[C@@H](CO)C(N)=O)NC(=O)[C@H](CC(C)C)NC(=O)[C@H](CCC(N)=O)NC(=O)[C@H](C)NC(=O)[C@H](Cc2c[nH]c3ccccc23)NC(=O)[C@H](Cc2ccc(O)cc2)NC(=O)[C@H](C)NC1=O)[C@@H](C)O [SP-190, Ac- L T F $er8 A Y W A Q L $e S -NH2] (Ac-LTF[R8]AYWAQL[S5]S-NH2; staple (E) 4-11 (inferred)) | – | 74.9 | 97 |
